In US11795162B2, “Modulators of the estrogen-related receptor” (Saint Louis University, priority 2017, dated 2023):

Biological target: T1, ERR gamma protein (Homo sapiens, UniProt P62508)
T1 sequence (P62508 1-458): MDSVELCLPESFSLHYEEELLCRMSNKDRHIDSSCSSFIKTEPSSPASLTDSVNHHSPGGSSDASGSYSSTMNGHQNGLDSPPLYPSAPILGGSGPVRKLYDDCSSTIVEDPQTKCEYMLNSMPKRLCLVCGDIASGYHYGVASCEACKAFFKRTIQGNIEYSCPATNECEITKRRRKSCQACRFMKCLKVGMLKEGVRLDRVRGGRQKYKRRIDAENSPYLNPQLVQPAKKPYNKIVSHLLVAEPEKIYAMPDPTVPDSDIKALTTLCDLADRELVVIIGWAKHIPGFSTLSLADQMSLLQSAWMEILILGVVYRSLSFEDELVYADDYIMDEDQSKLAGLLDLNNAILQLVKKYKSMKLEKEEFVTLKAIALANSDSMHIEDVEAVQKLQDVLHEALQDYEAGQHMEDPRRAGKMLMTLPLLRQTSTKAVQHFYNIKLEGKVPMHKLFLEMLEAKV
Assay: Protein thermal shift assay
Type: binding
Conditions: compound at 20 μM; ERR gamma protein 0.1 mg/mL, SYPRO-Orange; read-out: T.S. (thermal shift) range
Description: Six replicate reactions were set up and run in Applied Biosystems Quantstudio 7 Real-Time PCR system. Data were collected at a ramp rate of 0.05° C./s from 24° C. through 95° C. and analyzed using Protein Thermal Shift Software 1.3.

Row | ΔTm at 20 µM | Structure (SMILES)
1 | 2 to 4 °C | O=C(Nc1ccc(F)cc1)c1ncc(-c2ccc(O)cc2)s1 [Compound 144]
2 | 0 to 2 °C | COc1ccc(NC(=O)c2ccc(-c3ccc(O)cc3)s2)cc1 [Compound 29]
3 | 0 to 2 °C | COc1ccc(NC(=O)c2ccc(-c3ccsc3)s2)cc1 [Compound 73]
4 | > 4 °C | O=C(Nc1cccc(F)c1)c1ncc(-c2ccc(O)cc2)s1 [Compound 11, N-(3-fluorophenyl)-5-(4-hydroxyphenyl)thiazole-2-carboxamide]
5 | 0 to 2 °C | O=C(Nc1ccccc1F)c1ccc(-c2cccc(B(O)O)c2)s1 [Compound 59]
6 | 2 to 4 °C | Nc1cccc(-c2ccc(C(=O)Nc3ccc4ccccc4c3)s2)c1 [Compound 54]
7 | 2 to 4 °C | N#Cc1ccc(-c2ccc(C(=O)Nc3ccc(O)cc3)s2)cc1 [Compound 102]
8 | 0 to 2 °C | O=C(Nc1ccc(F)cc1)c1nc(-c2cccc(O)c2)cs1 [Compound 150]
9 | > 4 °C | O=C(Nc1cccc(F)c1)c1ncc(-c2cccc(O)c2)s1 [Compound 21]
10 | 0 to 2 °C | O=C(Nc1ccc(O)cc1)c1nc(-c2ccsc2)cs1 [Compound 153]
11 | 0 to 2 °C | CC(C)c1ccc(-c2ccc(C(=O)Nc3cccc(O)c3)s2)cc1 [Compound 140]
12 | 0 to 2 °C | COc1ccc(NC(=O)c2ccc(-c3ccc(N)cc3)s2)cc1 [Compound 18]
13 | 2 to 4 °C | O=C(Nc1ccc(Cl)cc1)c1ccc(-c2ccccc2F)s1 [Compound 84]
14 | 2 to 4 °C | O=C(Nc1ccncc1)c1ccc(-c2cccc(C(F)(F)F)c2)s1 [Compound 109]
15 | 0 to 2 °C | CC(C)c1ccc(-c2ccc(COc3ccccc3)s2)cc1 [Compound 4, 2-(4-isopropylphenyl)-5-(phenoxymethyl)thiophene]
16 | 0 to 2 °C | CC(C)c1ccc(-c2ccc(C(=O)Nc3ccccn3)s2)cc1 [Compound 137]
17 | 0 to 2 °C | O=C(Nc1ccc2ncsc2c1)c1ccc(-c2cccc(O)c2)o1 [Compound 42]
18 | 0 to 2 °C | CC(C)c1ccc(-c2ccc(C(=O)Nc3ccc(O)cc3)s2)cc1 [Compound 13]
19 | 0 to 2 °C | N#Cc1ccc(-c2ccc(C(=O)Nc3ccncc3)s2)cc1 [Compound 101]
20 | 0 to 2 °C | O=C(Nc1cccc(C(F)(F)F)c1)c1ccc(-c2ccc(O)cc2)s1 [Compound 71]
21 | 0 to 2 °C | O=C(Nc1cccnc1)c1ccc(-c2ccc(F)cc2)s1 [Compound 93]
22 | 2 to 4 °C | CC(C)Cc1ccc(-c2ccc(C(=O)Nc3ccncc3)s2)cc1 [Compound 78]
23 | 0 to 2 °C | O=C(NCc1ccc(Cl)cc1)c1ccc(-c2cccc(O)c2)o1 [Compound 136]
24 | 0 to 2 °C | CC(C)(C)c1ccc(NC(=O)c2cc(-c3ccc(O)cc3)[nH]n2)cc1 [Compound 129]
25 | 0 to 2 °C | O=C(Nc1ccc(C(F)(F)F)cc1)c1ccc(-c2ccc(O)cc2)s1 [Compound 68]
26 | 0 to 2 °C | Cc1ccc(-c2ccc(C(=O)Nc3ccncc3)s2)cc1C [Compound 82]

Row | ΔTm at 20 µM | Structure (SMILES)
27 | > 4 °C | O=C(Nc1cccc(F)c1)c1ccc(-c2ccc(O)cc2)s1 [Compound 7, N-(3-fluorophenyl)-5-(4-hydroxyphenyl)thiophene-2-carboxamide]
28 | > 4 °C | O=C(Nc1cccc(B(O)O)c1)c1ccc(-c2ccsc2)s1 [Compound 57]
29 | 0 to 2 °C | N#Cc1ccc(-c2ccc(C(=O)Nc3cccnc3)s2)cc1 [Compound 100]
30 | 0 to 2 °C | CC(C)c1cccc(-c2ccc(C(=O)Nc3cccnc3)s2)c1 [Compound 118]
31 | 2 to 4 °C | CCOc1ccc(NC(=O)c2ccc(-c3cccc(O)c3)s2)cc1 [Compound 52]
32 | 0 to 2 °C | O=C(Nc1ccc(O)cc1)c1coc(-c2ccsc2)n1 [Compound 10, N-(4-hydroxyphenyl)-2-(thiophen-3-yl)oxazole-4-carboxamide]
33 | 0 to 2 °C | Cc1ccc(-c2ccc(C(=O)Nc3cccnc3)s2)cc1C [Compound 81]
34 | 2 to 4 °C | Cc1ccc(NC(=O)c2cc(-c3ccc(O)cc3)[nH]n2)cc1 [Compound 127]
35 | 2 to 4 °C | CC(C)Cc1ccc(-c2ccc(C(=O)Nc3ccc(O)cc3)s2)cc1 [Compound 79]
36 | 0 to 2 °C | N#Cc1ccc(-c2ccc(C(=O)Nc3ccc(Cl)cc3)s2)cc1 [Compound 99]
37 | 0 to 2 °C | O=C(Nc1cccnc1)c1ccc(-c2ccccc2F)s1 [Compound 85]
38 | 0 to 2 °C | O=C(Nc1cccc(O)c1)c1ncc(-c2ccsc2)s1 [Compound 147]
39 | 0 to 2 °C | O=C(Nc1cccc(O)c1)c1nc(-c2ccsc2)cs1 [Compound 152]
40 | 0 to 2 °C | O=C(Nc1ccc(Cl)cc1)c1ccc(-c2ccc(F)cc2)s1 [Compound 92]
41 | 0 to 2 °C | O=C(Nc1ccccc1F)c1ccc(-c2cccc(C(=O)C(F)(F)F)c2)s1 [Compound 154]
42 | 0 to 2 °C | Cc1cccc(NC(=O)c2ccc(-c3ccc(O)cc3)s2)c1 [Compound 19]
43 | 2 to 4 °C | O=C(Nc1cccc(B(O)O)c1)c1ccc(-c2ccccc2F)s1 [Compound 44]
44 | 0 to 2 °C | Cc1ccc(-c2ccc(C(=O)Nc3ccc(O)cc3)s2)cc1C [Compound 83]
45 | 2 to 4 °C | O=C(Nc1ccc(O)cc1)c1ccc(-c2cccc(C(F)(F)F)c2)s1 [Compound 110]
46 | 2 to 4 °C | O=C(Nc1cccc(F)c1)c1ccc(-c2ccc3[nH]ccc3c2)s1 [Compound 66]
47 | 0 to 2 °C | CC(C)c1cccc(-c2ccc(C(=O)Nc3ccc(O)cc3)s2)c1 [Compound 6, N-(4-hydroxyphenyl)-5-(3-isopropylphenyl)thiophene-2-carboxamide]
48 | 0 to 2 °C | O=C(Nc1cccnc1)c1ccc(-c2ccc(C(F)(F)F)cc2)s1 [Compound 112]
49 | 0 to 2 °C | CC(C)c1cccc(-c2ccc(C(=O)Nc3ccncc3)s2)c1 [Compound 119]
50 | > 4 °C | O=C(Nc1ccc2ccccc2c1)c1ccc(-c2cccc(O)c2)s1 [Compound 53]
51 | 2 to 4 °C | O=C(NCc1ccccc1)c1ccc(-c2ccc(Cl)cc2)s1 [Compound 2, N-benzyl-5-(4-chlorophenyl)thiophene-2-carboxamide]
52 | 2 to 4 °C | CC(C)c1ccc(-c2ccc(C(=O)Nc3ccncc3)s2)cc1 [Compound 139]

Row | ΔTm at 20 µM | Structure (SMILES)
53 | 0 to 2 °C | CC(C)(C)c1ccc(NC(=O)c2cc(-c3cccc(O)c3)[nH]n2)cc1 [Compound 128]
54 | 0 to 2 °C | Cc1ccc(-c2ccc(C(=O)Nc3ccc(Cl)cc3)s2)cc1C [Compound 80]
55 | 0 to 2 °C | O=C(Nc1ccncc1)c1ccc(-c2ccccc2F)s1 [Compound 86]
56 | 0 to 2 °C | O=C(Nc1cccnc1)c1ccc(-c2cccc(C(F)(F)F)c2)s1 [Compound 108]
57 | 0 to 2 °C | O=C(Nc1cccnc1)c1ccc(-c2cccc(F)c2)s1 [Compound 89]
58 | 0 to 2 °C | O=C(Nc1ccc(Cl)cc1)c1ccc(-c2ccc(C(F)(F)F)cc2)s1 [Compound 111]
59 | 0 to 2 °C | CC(C)c1ccc(NC(=O)c2cc(-c3cccc(O)c3)[nH]n2)cc1 [Compound 130]
60 | 0 to 2 °C | O=C(Nc1cccc(F)c1)c1ccc(-c2cnc(O)nc2)s1 [Compound 58]
61 | 0 to 2 °C | Clc1ccc(-c2ccc(CNCc3ccccc3)s2)cc1 [Compound 3, N-benzyl-1-(5-(4-chlorophenyl)thiophen-2-yl)methanamine]
62 | 0 to 2 °C | O=C(Nc1ccc(Cl)cc1)c1ccc(-c2cccc(C(F)(F)F)c2)s1 [Compound 107]
63 | 0 to 2 °C | CC(C)Oc1ccc(-c2ccc(C(=O)Nc3cccnc3)s2)cc1 [Compound 115]
64 | 0 to 2 °C | O=C(Nc1ccncc1)c1ccc(-c2ccc(C(F)(F)F)cc2)s1 [Compound 113]
65 | 2 to 4 °C | O=C(Nc1ccc(Cl)cc1)c1cc(-c2ccc(O)cc2)[nH]n1 [Compound 124]
66 | 0 to 2 °C | O=C(Nc1ccncc1)c1ccc(-c2ccc(F)cc2)s1 [Compound 94]
67 | 0 to 2 °C | O=C(Nc1ccc(C(F)(F)F)cc1)c1ccc(-c2ccncc2)s1 [Compound 69]
68 | 0 to 2 °C | O=C(Nc1ccccc1F)c1ccc(-c2ccc(C(=O)C(F)(F)F)cc2)s1 [Compound 12, N-(2-fluorophenyl)-5-(4-(2,2,2-trifluoroacetyl)phenyl)thiophene-2-carboxamide]
69 | 0 to 2 °C | O=C(Nc1ccccc1F)c1ccc(-c2cccc(O)c2)s1 [Compound 63]
70 | > 4 °C | CCOc1ccc(NC(=O)c2ccc(-c3cccc(N)c3)s2)cc1 [Compound 51]
71 | 2 to 4 °C | O=C(Nc1ccncc1)c1ccc(-c2cccc(F)c2)s1 [Compound 90]
72 | 0 to 2 °C | O=C(Nc1cccc(O)c1)c1cnc(-c2ccsc2)o1 [Compound 141]
73 | > 4 °C | O=C(Nc1cccc(F)c1)c1ccc(-c2ccc(O)c(C(F)(F)F)c2)s1 [Compound 61]
74 | 0 to 2 °C | O=C(Nc1ccc(O)cc1)c1cc(-c2cccc(O)c2)[nH]n1 [Compound 134]
75 | 0 to 2 °C | O=C(Nc1cccnc1)c1ccc(-c2ccsc2)s1 [Compound 103]
76 | 2 to 4 °C | CC(C)c1ccc(NC(=O)c2cc(-c3ccc(O)cc3)[nH]n2)cc1 [Compound 5, 3-(4-hydroxyphenyl)-N-(4-isopropylphenyl)-1H-pyrazole-5-carboxamide]
77 | 2 to 4 °C | O=C(Nc1ccc(F)cc1)c1ccc(-c2ccc(B(O)O)cc2)s1 [Compound 17]
78 | 0 to 2 °C | N#Cc1ccc(NC(=O)c2ccc(-c3cccc(O)c3)s2)cc1 [Compound 22]
